Measurements: patent US12590953B2, “Methods for screening cereblon modifying compounds” (CELGENE CORPORATION, priority 2018, dated 2026)
“Also recorded” adds a separate entry of the source.

Experiments:
SALL4 [1] = biological target: T1, SALL4 (Homo sapiens, UniProt Q96SW2+Q9UJQ4); assay: SALL4 protein level in human iPS cells, immunoblot; type: cell-based; details: 16 hours
T1 construct: host or cells: human iPS cells (CRBN wild-type and CRBN knock-out)
Experimental: Immunoblot analysis of whole cell lysates of CRBN wild-type (WT) and CRBN knock-out (−/−) human iPS cells was performed. Cells were treated with DMSO vehicle control (−) or thalidomide (Thal) at indicated concentrations for 16 hours (n=4, biological replicates).
Immunoblot analysis of whole cell lysates of human iPS cells treated with DMSO (−) or Thal (+) in the presence or absence of 1 μM MLN4924 or 10 μM MG132 for 6 hours were performed (n=2, biological replicates).
Human iPS cell lines ACS-1019 and ACS-1011 (derived from healthy donors) were obtained from ATCC. The hiPSCs were maintained in mTESR-1 medium (Stem Cell Technologies) in cell culture plates coated with a thin layer of Matrigel (BD Biosciences) incubated at 37° C. in a humidified 5% CO2 incubator according to the manufacturer's instruction. Cells were split through mechanic passaging with a glass pipet and enzymatically digestion with Dispase or Accutase every 2 to 3 days.
Human iPSCs, ACS-1019 was transduced with lentiviral vectors expressing CRISPR-Cas9 and small guide RNA targeting cereblon for 4 days. The resulting colonies were amplified and screened for cereblon knockout by immunoblot analysis with anti-CRBN65 antibody (Celgene).

SALL4 [2] = assay: Cellular degradation of SALL4 variants in lenti-X-293 HEK cells expressing GST-CRBN; type: cell-based, human; details: 40 μM thalidomide, 16 hours
Experimental: Cells were treated with […] (+) or DMSO vehicle control (−) as indicated for 16 hours (n=2, biological replicates).
Lenti-x-293 cells stably expressing GST-CRBN and SALL4 variants were treated with DMSO or 40 μM thalidomide for 16 hours. Cells were then wished with ice-cold 1×PBS twice, lysed in buffer A [50 mM Tris. CL, 150 mM NaCl, 1% triton-x 100, complete protease inhibitor tablet (Roche), phosphatase inhibitor tablet (Roche)]. Whole cell extracts were harvested and subjected to immunoblot analysis.

ZFP91 = ZFP91 (Mus musculus, UniProt Q62511); assay: ZFP91 immunohistochemistry in huCRBN mouse testis; type: in vivo; parameters: from tissue; host or cells: testis of homozygous huCRBN knock-in mice; details: huCRBN mice, 1000 mg/kg for 7 days
ZFP91, sequence (Q62511 whole entry): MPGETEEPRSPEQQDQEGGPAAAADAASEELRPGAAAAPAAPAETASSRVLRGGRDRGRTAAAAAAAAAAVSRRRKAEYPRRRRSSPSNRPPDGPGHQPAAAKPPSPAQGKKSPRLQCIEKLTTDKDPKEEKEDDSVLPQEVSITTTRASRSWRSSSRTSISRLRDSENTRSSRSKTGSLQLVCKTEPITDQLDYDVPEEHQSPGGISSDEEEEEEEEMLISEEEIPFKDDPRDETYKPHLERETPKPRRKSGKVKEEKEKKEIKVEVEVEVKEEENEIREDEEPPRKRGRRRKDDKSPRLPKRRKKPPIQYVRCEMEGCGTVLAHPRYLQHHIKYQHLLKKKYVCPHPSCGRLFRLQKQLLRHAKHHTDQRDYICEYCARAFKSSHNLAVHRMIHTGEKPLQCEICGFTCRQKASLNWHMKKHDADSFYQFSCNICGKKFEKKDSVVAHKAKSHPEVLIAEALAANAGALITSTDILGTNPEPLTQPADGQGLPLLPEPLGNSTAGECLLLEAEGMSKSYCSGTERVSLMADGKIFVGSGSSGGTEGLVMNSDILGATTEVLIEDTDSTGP
ZFP91, sequence (Q96SW2 whole entry, further chain): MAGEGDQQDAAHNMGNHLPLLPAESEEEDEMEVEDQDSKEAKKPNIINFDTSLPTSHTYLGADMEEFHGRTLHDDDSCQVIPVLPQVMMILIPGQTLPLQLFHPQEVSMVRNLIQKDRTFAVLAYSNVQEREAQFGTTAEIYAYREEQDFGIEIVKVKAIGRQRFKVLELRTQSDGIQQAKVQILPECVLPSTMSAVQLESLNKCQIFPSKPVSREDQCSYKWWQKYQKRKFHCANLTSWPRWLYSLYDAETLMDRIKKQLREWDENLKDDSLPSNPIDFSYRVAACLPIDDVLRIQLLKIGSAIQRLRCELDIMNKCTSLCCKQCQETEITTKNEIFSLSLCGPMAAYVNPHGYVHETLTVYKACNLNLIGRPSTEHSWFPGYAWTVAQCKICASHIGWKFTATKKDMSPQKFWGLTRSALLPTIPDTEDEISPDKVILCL
ZFP91, sequence (Q3U1J4 whole entry partner): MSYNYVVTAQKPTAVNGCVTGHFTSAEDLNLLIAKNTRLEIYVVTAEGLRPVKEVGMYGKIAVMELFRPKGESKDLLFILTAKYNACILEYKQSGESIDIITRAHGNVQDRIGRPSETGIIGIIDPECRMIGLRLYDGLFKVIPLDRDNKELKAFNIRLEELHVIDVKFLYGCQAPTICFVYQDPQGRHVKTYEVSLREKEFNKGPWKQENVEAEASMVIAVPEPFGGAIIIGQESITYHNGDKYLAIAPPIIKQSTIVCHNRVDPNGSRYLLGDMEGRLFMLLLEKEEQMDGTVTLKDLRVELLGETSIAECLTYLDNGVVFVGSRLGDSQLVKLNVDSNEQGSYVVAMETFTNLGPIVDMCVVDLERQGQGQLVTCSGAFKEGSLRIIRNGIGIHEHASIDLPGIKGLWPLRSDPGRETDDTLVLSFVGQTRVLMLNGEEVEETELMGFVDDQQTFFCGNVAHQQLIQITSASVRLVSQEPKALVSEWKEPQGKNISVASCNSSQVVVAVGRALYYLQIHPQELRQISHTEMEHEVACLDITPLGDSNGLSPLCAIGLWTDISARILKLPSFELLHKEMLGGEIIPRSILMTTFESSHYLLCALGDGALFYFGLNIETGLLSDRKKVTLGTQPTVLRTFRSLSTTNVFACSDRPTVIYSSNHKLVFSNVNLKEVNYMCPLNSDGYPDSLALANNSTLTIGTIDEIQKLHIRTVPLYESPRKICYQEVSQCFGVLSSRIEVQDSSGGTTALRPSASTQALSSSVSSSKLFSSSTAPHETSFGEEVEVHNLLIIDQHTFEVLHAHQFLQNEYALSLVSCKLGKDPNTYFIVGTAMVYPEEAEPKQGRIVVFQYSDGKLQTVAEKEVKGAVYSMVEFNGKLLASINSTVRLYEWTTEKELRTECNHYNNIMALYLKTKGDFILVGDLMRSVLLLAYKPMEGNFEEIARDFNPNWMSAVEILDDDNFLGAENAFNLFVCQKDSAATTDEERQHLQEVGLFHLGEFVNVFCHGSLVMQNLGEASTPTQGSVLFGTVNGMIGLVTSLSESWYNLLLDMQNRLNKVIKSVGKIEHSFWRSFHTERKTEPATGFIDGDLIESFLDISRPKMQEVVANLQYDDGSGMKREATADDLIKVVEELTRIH
Experimental: The SALL4 and ZFP91 protein levels were examined by immunohistochemistry in rabbit, wild-type mouse, and humanized cereblon mouse testes. […] HuCRBN Mice were treated for 7 days and testis were collected and examined by immunohistochemistry (n=3 animals per treatment group per species).
Rabbit embryos were stained for SALL4, and mouse testis were stained for SALL4 and ZFP91. Immunohistochemistry (IHC) was performed on the Bond-III automated slide stainer (Leica Microsystems, Buffalo Grove, Ill.) using the Bond Polymer Refine Detection system (Leica Microsystems, DS9800). Formalin fixed paraffin embedded (FFPE) tissues were sectioned at four micron thick and deparaffinized on the Bond-Max instrument. Antigen retrieval was performed with Epitope Retrieval 2 (ER2, pH 9.0) for 20 min at 100° C. The slides were blocked for endogenous peroxidase activity with Peroxide Block for 5 minutes at room temperature. Sections were then incubated with the mouse monoclonal anti-SALL4 EE-30 antibody (Santa Cruz, sc-101147) at a 1:100 dilution for 60 min at room temperature, or with the rabbit monoclonal anti-ZFP91 antibody (Celgene custom clone 122-8-6) at 0.25 ug/ml. For mouse testis, primary antibodies were incubated for 15 min at room temperature, and Post-Primary and horseradish peroxidase (HRP) labeled Polymer were incubated at the instrument's default conditions. […]

T1 sequence (Q9UJQ4 whole entry): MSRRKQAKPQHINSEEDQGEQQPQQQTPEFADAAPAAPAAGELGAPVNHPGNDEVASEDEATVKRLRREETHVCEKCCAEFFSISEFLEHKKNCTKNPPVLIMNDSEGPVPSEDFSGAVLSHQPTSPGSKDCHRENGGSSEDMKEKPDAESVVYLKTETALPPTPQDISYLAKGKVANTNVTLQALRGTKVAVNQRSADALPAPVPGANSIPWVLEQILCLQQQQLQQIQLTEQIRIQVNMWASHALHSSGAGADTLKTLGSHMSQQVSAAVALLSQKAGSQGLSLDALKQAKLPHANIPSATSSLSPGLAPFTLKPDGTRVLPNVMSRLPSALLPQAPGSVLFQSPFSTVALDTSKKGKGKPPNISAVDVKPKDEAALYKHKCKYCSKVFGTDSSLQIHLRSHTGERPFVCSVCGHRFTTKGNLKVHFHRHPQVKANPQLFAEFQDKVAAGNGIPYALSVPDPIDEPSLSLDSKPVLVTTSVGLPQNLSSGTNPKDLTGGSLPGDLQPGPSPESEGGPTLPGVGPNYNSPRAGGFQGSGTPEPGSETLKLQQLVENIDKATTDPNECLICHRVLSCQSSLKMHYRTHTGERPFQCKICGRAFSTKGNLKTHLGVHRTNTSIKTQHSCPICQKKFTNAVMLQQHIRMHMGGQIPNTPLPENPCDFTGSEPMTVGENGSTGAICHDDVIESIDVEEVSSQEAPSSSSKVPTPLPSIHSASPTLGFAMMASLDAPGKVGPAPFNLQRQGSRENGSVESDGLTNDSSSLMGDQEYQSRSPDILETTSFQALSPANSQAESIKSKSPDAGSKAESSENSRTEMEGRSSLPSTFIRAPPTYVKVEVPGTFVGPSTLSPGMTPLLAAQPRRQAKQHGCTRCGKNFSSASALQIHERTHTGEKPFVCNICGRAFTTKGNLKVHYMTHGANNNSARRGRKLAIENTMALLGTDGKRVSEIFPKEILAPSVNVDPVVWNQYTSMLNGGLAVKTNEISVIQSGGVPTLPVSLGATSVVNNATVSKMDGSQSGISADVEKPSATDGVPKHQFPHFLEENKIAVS
T1 sequence (Q96SW2 whole entry): as the sequence (Q96SW2 whole entry, further chain) above
T1 sequence (Q16531 whole entry partner): as the sequence (Q3U1J4 whole entry partner) above, with G418N, G495A, S745T, A1020T counted along it

## O=C1CCC(N2C(=O)c3ccccc3C2=O)C(=O)N1 (centres unmarked) [thalidomide]
SALL4 [1]; indicated concentrations
  SALL4 protein levels in CRBN wild-type human iPS cells: reduced upon exposure to thalidomide in a dose dependent fashion; also recorded: dependent on thalidomide and cerelon
SALL4 [1]; CRISPR-mediated cereblon knockout
  SALL4 downregulation in CRBN knock-out human iPS cells: completely blocked the downregulation of SALL4 induced by thalidomide
SALL4 [2]
  Degradation of G416A SALL4: blocked the thalidomide dependent degradation of SALL4
  Degradation of G600A SALL4: had no effect on SALL4 degradation
ZFP91
  ZFP91 protein levels in testis: robustly downregulated; also recorded: caused degradation of ZFP91 but not SALL4
